Laboratory results: patent publication US12661397B2, “Adjuvant comprising a glycoarchaeol and an immunostimulant” (priority 2021, dated 2026)

Assays:
OVA = experiment: Anti-OVA antibody ELISA of mouse serum; assay type: in vivo; details: OVA-immunized mice, Day 28; 100 = limit of detection (FIG. 5)
From the text: (§1) Serum of mice immunized with OVA antigen alone (None) or formulated with SLA archaeosomes, other adjuvants (Poly(I:C), Resiquimod (R848), CpG, MPLA, QS-21, Pam3CSK4) or SLA in combination with other adjuvants was collected on Day 28 (7 days post 2nd immunization by intramuscular route) and analyzed for antigen-specific IgG antibodies by ELISA. Grouped data is presented as geometric mean titer+95% Confidence Interval (n=10/group).
as §1, with “(none)” for “(None)”, “immunization)” for “immunization by intramuscular route)”, “IgG2c” for “IgG”
The levels of anti-OVA or anti-HBsAg antibodies (Abs) in mouse serum were quantified by ELISA using 96-well high-binding ELISA plates (Thermo Fisher Scientific, Waltham, MA, USA) coated overnight at room temperature (RT) with 100 μL of 10 μg/mL OVA (Sigma-Aldrich, St. Louis, MO, USA) in PBS or 1 μg/mL HBsAg (Fitzgerald Industries International) in 16 mM sodium carbonate/34 mM sodium bicarbonate buffer, pH 9.6 (Sigma-Aldrich). […] Bound IgG Abs were detected spectrophotometrically at 450 nm. […]

[1] = system: SARS-CoV-2 spike protein (SmT1); experiment: SARS-CoV-2 Spike-specific IgG ELISA in hamsters; assay type: in vivo, Syrian Golden hamsters; details: 3 μg SmT1 i.m. Day 0 only, serum Day 34 (FIG. 15 lower)

| Compound | anti-OVA IgG2c titer (OVA) | Anti-spike IgG GMT, prime only regimen [1] |
| --- | --- | --- |
| CC(C)CCCC(C)CCCC(C)CCCC(C)CCOC[C@@H](CO[C@@H]1O[C@H](CO)[C@@H](O[C@@H]2O[C@H](COS(=O)(=O)O)[C@H](O)[C@H](O)[C@H]2O)[C@H](O)[C@H]1O)OCCC(C)CCCC(C)CCCC(C)CCCC(C)C (stereo partly drawn) [SLA, 6′-sulfate-β-D-Galp-(1,4)-β-D-Glcp-(1,1)-archaeol] | 100 | 6,050 |
| polyinosinic-polycytidylic acid [Poly(I:C), reference compound] | 5420 | – |
